Where “and” joins values, the source holds several entries; their conditions need not be identical. Equal entries are not always repeated. Where two headings read alike, the source gives them in different places.
Tests used:
smHDAC8 = target: T1, smHDAC8 (Schistosoma mansoni, UniProt A5H660); assay: biochemical; assay type: biochemical; details: for inhibition at 5 µM / inhibition at 50 µM: pretest; for inhibition at 5 µM: read-out: smHDAC8 % inhibition @ 5 μM (Fluor de Lys); for inhibition at 50 µM: read-out: smHDAC8 % inhibition @ 50 μM (Fluor de Lys); for inhibition at 10 µM: pretest n=1, read-out: smHDAC8 (% inhibition, Fluor de Lys)
T1 construct: made in house; host or cells: E. coli
T1 sequence (A5H660 1-440): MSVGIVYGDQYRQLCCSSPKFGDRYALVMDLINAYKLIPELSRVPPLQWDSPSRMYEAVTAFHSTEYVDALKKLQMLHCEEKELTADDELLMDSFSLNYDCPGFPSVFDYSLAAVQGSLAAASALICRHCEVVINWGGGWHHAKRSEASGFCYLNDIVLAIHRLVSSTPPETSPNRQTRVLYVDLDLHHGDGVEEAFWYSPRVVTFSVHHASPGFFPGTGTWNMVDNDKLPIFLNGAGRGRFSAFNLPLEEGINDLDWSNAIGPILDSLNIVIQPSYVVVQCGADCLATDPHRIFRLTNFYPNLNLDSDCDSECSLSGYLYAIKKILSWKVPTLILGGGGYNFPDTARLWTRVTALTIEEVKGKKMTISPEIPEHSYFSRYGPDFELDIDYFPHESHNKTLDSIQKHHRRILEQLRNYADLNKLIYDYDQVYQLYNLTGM

hsHDAC8 [1] = target: T2, hsHDAC8 (Homo sapiens, UniProt Q9BY41); set-up: method as in PMID 19007204; details: cited from earlier work
T2 construct: made in house
T2 sequence (Q9BY41 1-377): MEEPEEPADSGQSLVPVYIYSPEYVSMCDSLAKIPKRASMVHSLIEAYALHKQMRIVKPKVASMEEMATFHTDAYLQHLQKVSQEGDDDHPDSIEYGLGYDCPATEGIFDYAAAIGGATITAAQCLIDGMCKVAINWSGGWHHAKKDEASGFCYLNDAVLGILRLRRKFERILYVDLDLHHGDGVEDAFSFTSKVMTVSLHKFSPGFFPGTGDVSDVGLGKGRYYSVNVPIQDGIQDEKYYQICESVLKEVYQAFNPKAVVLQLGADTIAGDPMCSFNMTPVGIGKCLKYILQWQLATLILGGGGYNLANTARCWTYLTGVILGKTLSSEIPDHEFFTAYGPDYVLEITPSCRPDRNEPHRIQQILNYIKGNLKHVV

hsHDAC1 [2] = target: T3, hsHDAC1 (Homo sapiens, UniProt Q13547); assay: In vitro hsHDAC1 inhibition (ZMAL substrate, trypsin developer); assay type: biochemical; details: for inhibition at 10 µM: read-out: hsHDAC1 (% inhibition, ZMAL)
T3 sequence (Q13547 whole entry): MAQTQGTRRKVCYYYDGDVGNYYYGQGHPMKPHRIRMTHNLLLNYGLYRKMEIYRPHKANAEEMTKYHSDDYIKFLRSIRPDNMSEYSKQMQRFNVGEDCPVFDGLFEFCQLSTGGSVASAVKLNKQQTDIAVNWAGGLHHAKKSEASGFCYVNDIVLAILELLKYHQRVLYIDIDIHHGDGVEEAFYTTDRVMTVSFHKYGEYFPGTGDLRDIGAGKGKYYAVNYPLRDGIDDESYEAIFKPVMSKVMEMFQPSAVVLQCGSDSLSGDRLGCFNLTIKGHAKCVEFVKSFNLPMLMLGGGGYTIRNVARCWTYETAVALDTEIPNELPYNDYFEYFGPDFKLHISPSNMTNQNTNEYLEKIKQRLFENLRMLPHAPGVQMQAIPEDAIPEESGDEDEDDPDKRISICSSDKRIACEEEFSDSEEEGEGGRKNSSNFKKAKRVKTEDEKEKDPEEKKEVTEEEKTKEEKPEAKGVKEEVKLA

hsHDAC1 [3] = target: T3, hsHDAC1; set-up: method as in PMID 19007204; details: cited from earlier work
hsHDAC8 [4] = target: T2, hsHDAC8; assay: In vitro hsHDAC8 inhibition, homogeneous fluorescence assay (Fluor de Lys substrate); assay type: biochemical; details: n=2; mean ± S.E.M.
hsHDAC6 = target: T4, hsHDAC6 (Homo sapiens, UniProt Q9UBN7); assay: In vitro hsHDAC6 inhibition (ZMAL substrate, trypsin developer); assay type: biochemical; details: for IC50: n=2, mean ± S.E.M.
T4 sequence (Q9UBN7 1-1215): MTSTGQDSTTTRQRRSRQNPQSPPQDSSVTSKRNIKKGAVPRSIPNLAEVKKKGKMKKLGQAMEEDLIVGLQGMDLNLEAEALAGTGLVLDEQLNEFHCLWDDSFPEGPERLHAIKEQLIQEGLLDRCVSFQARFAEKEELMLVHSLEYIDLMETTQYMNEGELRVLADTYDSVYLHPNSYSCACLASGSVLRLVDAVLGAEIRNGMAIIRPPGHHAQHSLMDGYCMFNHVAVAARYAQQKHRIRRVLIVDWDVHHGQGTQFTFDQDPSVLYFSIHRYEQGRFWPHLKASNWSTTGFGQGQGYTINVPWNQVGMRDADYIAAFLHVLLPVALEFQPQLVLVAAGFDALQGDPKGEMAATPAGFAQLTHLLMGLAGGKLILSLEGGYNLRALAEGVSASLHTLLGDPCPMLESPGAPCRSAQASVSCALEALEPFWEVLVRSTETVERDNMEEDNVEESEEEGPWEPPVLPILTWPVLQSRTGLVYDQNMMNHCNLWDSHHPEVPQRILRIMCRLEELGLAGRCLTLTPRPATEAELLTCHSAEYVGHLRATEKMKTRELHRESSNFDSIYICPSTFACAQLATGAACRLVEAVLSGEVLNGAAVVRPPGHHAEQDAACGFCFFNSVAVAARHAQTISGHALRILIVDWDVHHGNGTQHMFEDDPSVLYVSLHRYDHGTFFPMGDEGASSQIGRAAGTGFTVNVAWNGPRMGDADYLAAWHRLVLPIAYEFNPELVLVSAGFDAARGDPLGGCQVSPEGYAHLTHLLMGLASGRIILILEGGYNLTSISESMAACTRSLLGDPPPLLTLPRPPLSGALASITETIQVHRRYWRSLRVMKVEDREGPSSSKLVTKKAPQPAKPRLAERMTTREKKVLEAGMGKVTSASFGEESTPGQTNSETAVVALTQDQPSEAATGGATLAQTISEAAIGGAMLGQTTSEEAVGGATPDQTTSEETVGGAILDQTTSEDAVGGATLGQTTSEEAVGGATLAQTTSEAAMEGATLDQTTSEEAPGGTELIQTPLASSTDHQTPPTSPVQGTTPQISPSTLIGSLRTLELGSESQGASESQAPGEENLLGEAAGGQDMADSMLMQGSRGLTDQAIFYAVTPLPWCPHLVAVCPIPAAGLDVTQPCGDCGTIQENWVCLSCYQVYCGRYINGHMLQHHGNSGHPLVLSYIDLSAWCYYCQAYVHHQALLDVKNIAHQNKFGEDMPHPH

[5] = tested on: S. mansoni larvae (schistosomula); assay: Schistosome viability testing, resazurin-based fluorescence assay; assay type: cell-based, Schistosoma mansoni; details: Schistosoma mansoni, 72 h, read-out: % viability of S. mansoni schistosomula
Experimental: Selected compounds (Table 4) were tested for their effects on the viability of S. mansoni larvae (schistosomula) using a resazurin‐based fluorescence assay that measures mitochondrial activity. Assays were carried out in triplicate on two separate batches of schistosomula and the results are expressed as the percentage of the value obtained with the solvent (DMSO). Initial testing was done at 10 μM as part of a high‐throughput screening procedure and compounds provoking at least a 25 % reduction in viability were tested at 20 μM to determine a dose‐response. […] However, the level of reduction obtained was mediocre and this compound was not considered for further testing. […] A variety of schistosome viability assays are currently used in the field [e. g. […] However, since we have compared compounds that a priori have the same biological target, it is unlikely that they will have different effects on the parasite and that a different viability assay, for example based on morphological characteristics,52 would give different results. Nevertheless, in view of the potency of the triazole‐based smHDAC8 inhibitors on the enzyme, their further development, aimed at improving their bioavailability, is justified.
Schistosome viability testing: The resazurin‐based assay to determine the effects of novel inhibitors targeting smHDAC8 on the viability of S. mansoni schistosomula was carried out exactly as previously described.27, 62 Briefly, newly transformed schistosomula (NTS) were obtained in vitro as previously described63 by mechanical transformation of S. mansoni cercaria. A suspension of NTS was prepared at a concentration of 100 per 100 μL using Medium 199 (Invitrogen) supplemented with 10 % fetal calf serum (Gibco), penicillin (50 U×mL^−1), streptomycin (50 μg×mL^−1), and rifampicin (60 μg×mL^−1). Schistosomula were kept in culture for 3 h at 37 °C and 5 % CO2 prior to use in screening. Drug stock solutions of 20 mM in DMSO were used. Mid‐dilutions were performed in 100 % DMSO and 1 μL added to 100 μL/well of M199 medium in black 96 well plates (Nunc, UK) with supplemented Medium 199 and 100 μL of the prepared NTS suspension (100 NTS/well). Live and dead schistosomula (treated with 70 % ethanol) were used as positive and negative controls. Experiments were carried out in triplicate wells in two biological replicates and the compounds were tested at final concentrations of 10 and 20 μM. After 48 h of drug exposure, 20 μL of resazurin solution (Abd Serotec) were added to each well. Finally, after 72 h of exposure, the fluorescence intensity of the highly red fluorescent resorufin product was measured using an excitation wavelength of 530 nm and an emission wavelength of 590 nm in an Infinite M200 Pro microplate reader (TECAN). Background fluorescence of the drug containing medium were determined for each drug dilution using wells containing only DMSO as control.

| Compound | inhibition at 5 µM (smHDAC8) [%] | inhibition at 50 µM (smHDAC8) [%] | IC50 (smHDAC8) [µM] | inhibition at 10 µM (smHDAC8) [%] | inhibition at 10 µM (hsHDAC1 [2]) [%] | IC50 (hsHDAC8 [4]) [µM] | other results |
| --- | --- | --- | --- | --- | --- | --- | --- |
| O=C(NO)c1cn(-c2cc(Cl)ccc2O)nn1 [Compound 13, 1‐(5‐Chloro‐2‐hydroxyphenyl)‐N‐hydroxy‐1H‐1,2,3‐triazole‐4‐carboxamide] | 14.5 | 67.3 |  |  |  |  |  |
| O=C(NO)c1cn(-c2cc(Cl)ccc2OCc2ccc(I)cc2)nn1 [Compound 17, 1‐{5‐Chloro‐2‐[(4‐iodobenzyl)oxy]phenyl}‐N‐hydroxy‐1H‐1,2,3‐triazole‐4‐carboxamide] |  | 21 |  |  |  |  |  |
| O=C(NO)c1cn(CCc2ccccc2)nn1 [Compound 2 f] |  |  | 10.7 ± 1.88 | 49.5 | 1.7 ± 3.4 | 5.54 ± 0.64 | melting point: 178 °C; inhibition of hsHDAC8 (in words) (hsHDAC8 [1]): weakly inhibit; inhibition of hsHDAC1 (in words) (hsHDAC1 [3]): weakly inhibit; inhibition at 10 µM (hsHDAC6; @ 10 μM): 12.6 ± 9.6% |
| O=C(NO)c1cn(-c2cc(Cl)ccc2OCc2ccc3ccccc3c2)nn1 [Compound 16] |  | 43.5 |  |  |  |  |  |
| O=C(NO)c1cn(CCCc2ccccc2)nn1 [Compound 2 g] |  |  | 8.81 ± 1.89 | 50.5 | 5.4 ± 7 | 5.37 ± 0.68 | melting point: 182 °C; inhibition of hsHDAC8 (in words) (hsHDAC8 [1]): weakly inhibit; inhibition of hsHDAC1 (in words) (hsHDAC1 [3]): weakly inhibit; IC50 (hsHDAC6): 31.8 ± 6.18 µM |

Second part, led by results:

| inhibition at 5 µM (smHDAC8) [%] | inhibition at 50 µM (smHDAC8) [%] | IC50 (smHDAC8) [µM] | inhibition at 10 µM (smHDAC8) [%] | inhibition at 10 µM (hsHDAC1 [2]) [%] | IC50 (hsHDAC8 [4]) [µM] | Compound | other results |
| --- | --- | --- | --- | --- | --- | --- | --- |
| 49.8 | 91.1 |  |  |  |  | Cc1ccc(Oc2ccc(Cl)cc2-n2cc(C(=O)NO)nn2)cc1 [Compound 20] |  |
|  |  | 4.44 ± 1.52 | 57.9 | 8.1 ± 1 | 12.4 ± 1.08 | O=C(NO)c1cn(-c2ccccc2)nn1 [Compound 2 b, N ‐Hydroxy‐1‐phenyl‐1H‐1,2,3‐triazole‐4‐carboxamide] | viability at 10 µM [5]: 92.5%; IC50 (hsHDAC6): 42.5 ± 3.64 µM |
| 49.1 | 87.9 |  |  |  |  | O=C(NO)c1cn(-c2ccccc2Oc2ccccc2)nn1 [Compound 28] |  |
| 66.2 | 93.4 |  |  |  | 2.2 ± 0.68 | O=C(NO)c1cn(-c2cc(Cl)ccc2Oc2ccc(F)cc2)nn1 [Compound 21, 1‐[5‐Chloro‐2‐(4‐fluorophenoxy)phenyl]‐N‐hydroxy‐1H‐1,2,3‐triazole‐4‐carboxamide] | viability at 10 µM [5]: 82%; IC50 (smHDAC8; n=2, mean ± S.E.M., read-out: smHDAC8 IC50 (Fluor de Lys)): 0.5 µM and 0.504 µM; inhibition at 5 µM (hsHDAC1 [2]; @ 5 μM): 11%; inhibition at 50 µM (hsHDAC1 [2]; @ 50 μM): 38.2%; inhibition at 5 µM (hsHDAC6; @ 5 μM): -1.5%; inhibition at 50 µM (hsHDAC6; @ 50 μM): 34.5% |
